Test results published in paper PMC9851200, “Multiparameter phenotypic screening for endogenous TFEB and TFE3 translocation identifies novel chemical series modulating lysosome function” (Autophagy, 2022).

Assays:
TFE3 = TFE3 nuclear translocation in iPSC-derived i3Neurons; format: cell-based, human; conditions: day 10
Description: hiPSCs were maintained under feeder-free conditions in a 37°C, 5% CO2 tissue culture incubator on tissue culture treated dishes coated with growth factor-reduced Matrigel (Corning, 354,277) and fed every 1–2 days with Essential 8 medium (Life Technologies, A1517001), as needed. Accutase ([…] Technologies, 07920) was used to enzymatically dissociate hiPSCs into single cells, and 0.5 mM EDTA was used for routine dissociation to maintain colony growth. To promote cell survival during passaging, cells were passaged with the ROCK/p160-Rho-associated coiled coil kinase inhibitor Y-27632 ([…]; Selleckchem, S1049). hiPSC-derived i^3Neurons were induced and differentiated according to Fernandopulle et al. and replated on high-content 96-well dishes (PerkinElmer, CellCarrierUltra-96) by day 3. […]
After the required compound incubation, media was removed from the wells and the cells were fixed in 4% paraformaldehyde (PFA; ThermoFisher Scientific/Pierce, 28,908) for 20 min. […] The Harmony image analysis software (Perkin Elmer) was used to identify nuclei TFEB or TFE3 positive nuclei, expressed as a percentage of total cell number (See Figure S2 and S3 for analysis protocols). Mean values and standard deviation of DMSO control wells on the plate were calculated. […]

CLEAR genes = experiment: RT-qPCR of CLEAR gene expression; format: cell-based; conditions: SH-SY5Y, 1 µM compound, 48 h
Description: We assessed autophagic flux by quantifying LC3-II levels using western blotting in compound-treated cells in the presence or absence of the lysosomal inhibitor bafilomycin A1. […] Given the lack of correlation between the ability of the compounds to upregulate CLEAR genes, and changes in LC3-II levels, the action of the compounds was therefore independent of autophagic flux. SH-SY5Y cells were treated with compounds in 12-well or 24-well plates (Corning Costar, […]). Cell pellets were harvested and RNA was extracted using the RNeasy Mini Kit (QIAGEN, 74,104) according to manufacturer's instructions. cDNA was generated from 500 ng RNA using Superscript III Reverse Transcriptase (Thermofisher Scientific, 18,080,085). Expression of the CLEAR genes CTSD, HEXA, LAMP1, CLCN7, ATP6V0A1, SQSTM1, UVRAG and GABARAP were assessed using Fast SYBR Green Master Mix standard protocol (Thermofisher Scientific, 4,309,155), on a StepOnePlusTM Real-Time PCR System (Applied biosystems, Waltham, MA, USA). Primer sequences are shown in Table S7A and were designed in Primer3 or by OriGene Technologies and validated in house for efficiency and specificity.

CIT = CIT (Homo sapiens, UniProt O14578); experiment: KINOMEscan CIT; format: binding; conditions: NEW KINOMEscan
JAK1(JH2) = molecular target: T1, JAK1(JH2) (Homo sapiens, UniProt P23458); experiment: KINOMEscan JAK1(JH2); format: binding; conditions: NEW KINOMEscan
T1 construct: JAK1(JH2)

TGFBR2 = TGFBR2 (Homo sapiens, UniProt P37173); experiment: KINOMEscan TGFBR2; format: binding; conditions: NEW KINOMEscan
PRKD1 = molecular target: T2, PRKD1 (Homo sapiens, UniProt Q15139); experiment: KINOMEscan PRKD1; format: binding; conditions: NEW KINOMEscan
T2 sequence (Q15139 1-912): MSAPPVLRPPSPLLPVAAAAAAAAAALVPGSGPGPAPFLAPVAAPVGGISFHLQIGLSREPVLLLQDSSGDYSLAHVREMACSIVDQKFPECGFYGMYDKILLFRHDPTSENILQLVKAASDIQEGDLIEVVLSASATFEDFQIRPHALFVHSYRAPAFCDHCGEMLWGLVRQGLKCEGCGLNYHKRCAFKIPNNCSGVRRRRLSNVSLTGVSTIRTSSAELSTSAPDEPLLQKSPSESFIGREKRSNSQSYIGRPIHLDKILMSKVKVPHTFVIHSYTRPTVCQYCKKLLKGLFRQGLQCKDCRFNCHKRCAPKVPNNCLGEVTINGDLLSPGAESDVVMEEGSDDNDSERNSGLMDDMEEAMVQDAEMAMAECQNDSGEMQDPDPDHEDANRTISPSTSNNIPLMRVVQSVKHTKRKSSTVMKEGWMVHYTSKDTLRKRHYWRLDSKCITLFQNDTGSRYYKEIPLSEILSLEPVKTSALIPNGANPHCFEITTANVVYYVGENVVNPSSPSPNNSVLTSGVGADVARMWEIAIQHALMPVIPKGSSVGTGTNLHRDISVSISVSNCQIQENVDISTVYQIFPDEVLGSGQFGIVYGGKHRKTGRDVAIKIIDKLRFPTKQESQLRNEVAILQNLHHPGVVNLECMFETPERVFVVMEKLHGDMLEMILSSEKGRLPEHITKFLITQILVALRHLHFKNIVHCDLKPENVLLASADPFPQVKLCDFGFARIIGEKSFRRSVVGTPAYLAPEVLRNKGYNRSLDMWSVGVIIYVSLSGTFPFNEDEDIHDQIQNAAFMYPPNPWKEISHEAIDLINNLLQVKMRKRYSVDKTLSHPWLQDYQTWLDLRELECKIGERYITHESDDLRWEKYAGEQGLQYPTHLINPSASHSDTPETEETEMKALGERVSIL

[1] = molecular target: kinases (KINOMEscan panel) (Homo sapiens, UniProt Q9NY57); format: binding
[2] = molecular target: kinases (KINOMEscan panel) (Homo sapiens, UniProt P45983); format: binding
[3] = molecular target: kinases (KINOMEscan panel) (Homo sapiens, UniProt P28482); format: binding
[4] = molecular target: kinases (KINOMEscan panel) (Homo sapiens, UniProt P07947); format: binding
[5] = molecular target: kinases (KINOMEscan panel) (Homo sapiens, UniProt P36507); format: binding
[6] = molecular target: kinases (KINOMEscan panel) (Homo sapiens, UniProt Q9NSY1); format: binding

Chain of TGFBR2 (P37173 23-567): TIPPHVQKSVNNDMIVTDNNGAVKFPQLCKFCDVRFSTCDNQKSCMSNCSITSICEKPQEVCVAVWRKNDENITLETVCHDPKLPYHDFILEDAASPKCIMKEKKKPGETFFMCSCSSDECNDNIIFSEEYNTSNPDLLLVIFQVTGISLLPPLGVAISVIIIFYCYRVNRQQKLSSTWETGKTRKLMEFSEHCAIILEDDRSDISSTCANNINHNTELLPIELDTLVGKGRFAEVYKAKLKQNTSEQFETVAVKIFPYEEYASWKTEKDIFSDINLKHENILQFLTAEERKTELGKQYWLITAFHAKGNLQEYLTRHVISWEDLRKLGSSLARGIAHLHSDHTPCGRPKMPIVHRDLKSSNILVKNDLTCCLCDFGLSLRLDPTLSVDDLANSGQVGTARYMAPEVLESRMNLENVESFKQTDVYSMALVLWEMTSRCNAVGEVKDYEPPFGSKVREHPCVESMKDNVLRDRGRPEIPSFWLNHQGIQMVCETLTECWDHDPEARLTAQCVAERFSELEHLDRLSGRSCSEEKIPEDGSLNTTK
T1 sequence (P23458 583-855 limits assumed): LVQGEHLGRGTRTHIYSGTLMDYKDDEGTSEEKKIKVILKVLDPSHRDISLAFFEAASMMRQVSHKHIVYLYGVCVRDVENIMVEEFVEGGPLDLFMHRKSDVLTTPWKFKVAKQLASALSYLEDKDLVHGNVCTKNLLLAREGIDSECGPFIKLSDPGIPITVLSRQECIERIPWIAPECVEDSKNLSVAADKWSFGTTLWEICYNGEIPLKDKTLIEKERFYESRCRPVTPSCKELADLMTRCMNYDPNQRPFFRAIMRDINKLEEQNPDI
Chain of CIT (O14578 whole entry): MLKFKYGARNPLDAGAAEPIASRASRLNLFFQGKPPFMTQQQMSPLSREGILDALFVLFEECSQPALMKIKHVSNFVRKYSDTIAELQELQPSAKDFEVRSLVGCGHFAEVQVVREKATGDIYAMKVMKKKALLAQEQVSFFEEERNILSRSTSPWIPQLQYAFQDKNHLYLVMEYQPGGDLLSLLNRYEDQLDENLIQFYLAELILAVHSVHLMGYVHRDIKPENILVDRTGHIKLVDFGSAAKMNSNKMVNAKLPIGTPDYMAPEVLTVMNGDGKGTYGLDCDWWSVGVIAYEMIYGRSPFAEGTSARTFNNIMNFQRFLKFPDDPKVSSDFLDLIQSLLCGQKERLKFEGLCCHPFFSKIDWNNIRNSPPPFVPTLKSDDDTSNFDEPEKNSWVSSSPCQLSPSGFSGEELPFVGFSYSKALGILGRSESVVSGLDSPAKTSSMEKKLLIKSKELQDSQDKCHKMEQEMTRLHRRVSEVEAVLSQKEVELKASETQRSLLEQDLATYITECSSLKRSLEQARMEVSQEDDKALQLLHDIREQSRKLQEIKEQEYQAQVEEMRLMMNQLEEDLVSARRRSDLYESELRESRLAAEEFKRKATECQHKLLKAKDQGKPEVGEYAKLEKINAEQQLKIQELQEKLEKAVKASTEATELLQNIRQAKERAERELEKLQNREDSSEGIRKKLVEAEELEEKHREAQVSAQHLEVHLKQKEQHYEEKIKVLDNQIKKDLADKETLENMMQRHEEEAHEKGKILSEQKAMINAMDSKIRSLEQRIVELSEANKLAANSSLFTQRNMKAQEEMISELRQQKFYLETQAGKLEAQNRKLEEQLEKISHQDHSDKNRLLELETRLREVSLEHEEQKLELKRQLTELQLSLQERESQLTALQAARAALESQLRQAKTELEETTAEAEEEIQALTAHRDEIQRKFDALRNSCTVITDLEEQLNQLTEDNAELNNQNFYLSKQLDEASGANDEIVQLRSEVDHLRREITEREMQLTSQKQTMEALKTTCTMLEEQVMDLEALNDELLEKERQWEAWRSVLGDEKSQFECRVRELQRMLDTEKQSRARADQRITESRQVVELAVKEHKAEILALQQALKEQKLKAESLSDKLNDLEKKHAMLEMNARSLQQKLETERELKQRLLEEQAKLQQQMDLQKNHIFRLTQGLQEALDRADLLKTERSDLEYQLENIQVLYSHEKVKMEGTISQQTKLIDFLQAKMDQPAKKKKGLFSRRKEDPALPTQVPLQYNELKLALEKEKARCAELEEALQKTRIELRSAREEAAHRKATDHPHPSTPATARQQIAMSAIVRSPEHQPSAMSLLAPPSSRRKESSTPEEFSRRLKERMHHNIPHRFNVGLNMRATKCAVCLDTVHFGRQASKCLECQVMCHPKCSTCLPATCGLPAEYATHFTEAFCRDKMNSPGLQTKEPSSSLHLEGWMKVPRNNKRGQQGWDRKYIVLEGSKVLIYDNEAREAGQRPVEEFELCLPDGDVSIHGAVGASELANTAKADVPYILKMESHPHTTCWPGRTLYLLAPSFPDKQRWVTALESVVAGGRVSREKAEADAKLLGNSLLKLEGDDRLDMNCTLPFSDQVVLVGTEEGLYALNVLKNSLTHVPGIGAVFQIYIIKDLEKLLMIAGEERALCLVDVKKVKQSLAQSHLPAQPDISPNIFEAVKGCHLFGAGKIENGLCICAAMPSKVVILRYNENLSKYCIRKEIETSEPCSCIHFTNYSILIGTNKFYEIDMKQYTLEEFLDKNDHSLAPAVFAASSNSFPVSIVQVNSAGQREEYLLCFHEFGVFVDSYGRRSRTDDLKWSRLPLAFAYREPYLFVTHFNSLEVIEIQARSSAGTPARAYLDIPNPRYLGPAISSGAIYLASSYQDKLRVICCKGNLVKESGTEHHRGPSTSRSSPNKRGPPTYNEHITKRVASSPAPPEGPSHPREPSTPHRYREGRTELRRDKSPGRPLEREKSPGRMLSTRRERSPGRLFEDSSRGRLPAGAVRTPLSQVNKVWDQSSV
Chain of kinases (KINOMEscan panel) (Homo sapiens, UniProt P28482) (P28482 whole entry): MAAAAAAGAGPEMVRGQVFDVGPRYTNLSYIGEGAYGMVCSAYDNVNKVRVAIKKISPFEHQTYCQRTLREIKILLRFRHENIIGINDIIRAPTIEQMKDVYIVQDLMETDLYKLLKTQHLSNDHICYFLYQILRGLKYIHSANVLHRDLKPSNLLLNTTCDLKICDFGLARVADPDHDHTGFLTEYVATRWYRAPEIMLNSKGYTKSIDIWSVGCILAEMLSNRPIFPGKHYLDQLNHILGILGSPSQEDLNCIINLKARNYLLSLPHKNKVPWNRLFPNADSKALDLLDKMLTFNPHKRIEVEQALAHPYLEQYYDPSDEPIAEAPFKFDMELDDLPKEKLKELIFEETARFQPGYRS
Chain of kinases (KINOMEscan panel) (Homo sapiens, UniProt P07947) (P07947 whole entry): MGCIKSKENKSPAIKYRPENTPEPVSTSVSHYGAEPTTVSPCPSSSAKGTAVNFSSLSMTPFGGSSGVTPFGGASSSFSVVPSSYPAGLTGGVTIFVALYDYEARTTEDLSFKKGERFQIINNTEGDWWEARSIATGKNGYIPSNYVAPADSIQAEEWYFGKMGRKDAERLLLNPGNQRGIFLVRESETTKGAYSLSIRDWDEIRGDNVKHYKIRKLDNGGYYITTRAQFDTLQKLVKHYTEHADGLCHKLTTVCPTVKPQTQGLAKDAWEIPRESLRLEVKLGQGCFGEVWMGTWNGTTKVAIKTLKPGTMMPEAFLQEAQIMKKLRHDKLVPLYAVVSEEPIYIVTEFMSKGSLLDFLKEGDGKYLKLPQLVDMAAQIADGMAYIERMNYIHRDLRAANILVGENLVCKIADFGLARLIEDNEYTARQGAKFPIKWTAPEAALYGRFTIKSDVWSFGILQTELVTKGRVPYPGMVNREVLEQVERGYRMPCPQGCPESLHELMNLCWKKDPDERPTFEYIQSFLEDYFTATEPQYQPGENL
Chain of kinases (KINOMEscan panel) (Homo sapiens, UniProt Q9NY57) (Q9NY57 whole entry): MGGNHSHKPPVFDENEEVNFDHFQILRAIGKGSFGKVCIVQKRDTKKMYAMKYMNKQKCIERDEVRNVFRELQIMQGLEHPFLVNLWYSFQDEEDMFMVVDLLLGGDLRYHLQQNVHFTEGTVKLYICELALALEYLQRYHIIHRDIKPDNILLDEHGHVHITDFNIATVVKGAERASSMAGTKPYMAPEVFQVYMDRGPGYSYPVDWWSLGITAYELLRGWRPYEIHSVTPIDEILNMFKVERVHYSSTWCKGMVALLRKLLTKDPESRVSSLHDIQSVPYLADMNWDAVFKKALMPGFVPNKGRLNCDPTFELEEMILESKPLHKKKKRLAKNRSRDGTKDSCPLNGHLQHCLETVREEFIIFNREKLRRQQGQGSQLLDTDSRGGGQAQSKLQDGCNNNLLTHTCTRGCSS
Chain of kinases (KINOMEscan panel) (Homo sapiens, UniProt P36507) (P36507 whole entry): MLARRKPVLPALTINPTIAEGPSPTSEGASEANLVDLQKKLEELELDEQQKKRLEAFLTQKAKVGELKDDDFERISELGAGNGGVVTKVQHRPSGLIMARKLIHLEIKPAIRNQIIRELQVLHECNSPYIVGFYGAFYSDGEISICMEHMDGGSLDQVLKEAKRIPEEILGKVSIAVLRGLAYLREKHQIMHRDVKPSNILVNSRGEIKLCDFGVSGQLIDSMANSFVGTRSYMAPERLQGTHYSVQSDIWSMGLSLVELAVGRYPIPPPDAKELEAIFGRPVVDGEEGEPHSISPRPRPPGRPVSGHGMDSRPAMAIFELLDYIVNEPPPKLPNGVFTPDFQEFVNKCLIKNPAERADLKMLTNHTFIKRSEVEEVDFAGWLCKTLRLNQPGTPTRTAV
Chain of kinases (KINOMEscan panel) (Homo sapiens, UniProt P45983) (P45983 whole entry): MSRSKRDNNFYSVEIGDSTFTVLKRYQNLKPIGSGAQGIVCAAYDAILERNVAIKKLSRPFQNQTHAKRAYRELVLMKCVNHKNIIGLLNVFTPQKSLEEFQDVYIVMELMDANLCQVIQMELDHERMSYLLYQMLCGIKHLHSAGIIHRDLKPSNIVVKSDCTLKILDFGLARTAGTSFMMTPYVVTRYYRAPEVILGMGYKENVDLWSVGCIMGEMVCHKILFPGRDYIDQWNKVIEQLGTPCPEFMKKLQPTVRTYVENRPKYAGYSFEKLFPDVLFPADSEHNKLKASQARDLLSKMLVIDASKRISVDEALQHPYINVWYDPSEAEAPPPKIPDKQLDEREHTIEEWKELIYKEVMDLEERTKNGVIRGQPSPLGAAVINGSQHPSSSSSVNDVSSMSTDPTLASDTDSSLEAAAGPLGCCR

Question: `Cc1cccc(-c2nc(Nc3ccc4ncsc4c3)c3ccccc3n2)n1` [NK140] was tested. Which “Nuclear translocation of TFE3 in i3Neurons (in words)” value (TFE3) did it give?
Answer: trend toward upregulation of TFE3 translocation

Question: What about the “CLEAR gene expression (in words)” value (CLEAR genes) of the same molecule?
Answer: upregulation of a number of CLEAR genes

Question: Which results are given for `Cc1cccc(-c2nc(Nc3ccc4nn(C)cc4c3)c3ccccc3n2)n1` [NK167]?
Answer: KINOMEscan CIT (CIT): 3; KINOMEscan JAK1(JH2domain-pseudokinase) (JAK1(JH2)): 36; KINOMEscan TGFBR2 (TGFBR2): 0; KINOMEscan PRKD1 (PRKD1): 0

Question: Which results are given for `Cc1cccc(-c2nc(N(C)c3ccc4ncsc4c3)c3ccccc3n2)n1` [NK-161]?
Answer: KINOMEscan CIT (CIT): 0; KINOMEscan STK32B/YANK2 [1]: 17; KINOMEscan MAPK8/JNK1 [2]: 0; KINOMEscan MAPK1/ERK2 [3]: 6; KINOMEscan YES1/YES [4]: 0; KINOMEscan MAP2K2/MEK2 [5]: 27; KINOMEscan BMP2K/BIKE [6]: 12; KINOMEscan JAK1(JH2domain-pseudokinase) (JAK1(JH2)): 41; KINOMEscan TGFBR2 (TGFBR2): 0; KINOMEscan PRKD1 (PRKD1): 46
